Results published in the OPERA property sets (Mansouri et al. 2018).
Where a SMILES comes first, the peptide text is derived from it.

Row | Structure (SMILES) | logP
1 | c1ccc(CCNc2ncnc3nc[nH]c23)cc1 | 2.42
2 | Cc1ccc(CO)c(C=NNC(=O)c2cccc(F)c2)c1O | 3.41
3 | O=c1cc(CSc2nc3ccccc3s2)occ1O | 2.08
4 | Cc1cccc(-n2nnnc2N)c1 | 1.24
5 | C[C@@H]1C[C@H]2[C@@H]3CCC4=CC(=O)C=C[C@]4(C)[C@@]3(Cl)[C@@H](O)C[C@]2(C)[C@@]1(OC(=O)c1ccco1)C(=O)CCl | 3.9
6 | O=C1c2cc(Cl)ccc2OCN1CCO[N+](=O)[O-] | 2.3
7 | N#CN=C1NCCN1Cc1cnccc1Cl | 0.77
8 | COC1C(OC(C)=O)CC(=O)OC(C)CC=CC=CC(=O)C(C)CC(CC=O)C1OC1OC(C)C(OC2CC(CO)C(OC(=O)CC(C)C)C(C)O2)C(N(C)C)C1O (stereo not given) | 3.52
9 | CC(C)C(N)C(=O)NC(Cc1ccc(O)cc1)C(=O)O (stereo not drawn) (H-Val-Tyr-OH; configuration not given here) | -2.52
10 | CCOc1ccc(NC(=O)OCCN2CCCCC2)cc1 | 3.41
11 | C[N+](C)([O-])CCc1ccccc1 | -0.28
12 | OCC1OC(Oc2ccc(-c3ccccc3)cc2)C(O)C(O)C1O (stereo not given) | 1.79
13 | CC(C)CC(N)C(=O)NC(C(=O)NC(C(=O)O)C(C)C)C(C)C (stereo not drawn) (H-Leu-Val-Val-OH; configuration not given here) | -2.1
14 | CCn1ccnc1CC1COc2ccccc2O1 (stereo not given) | 2.31
15 | CCCC(=NOCC)C1=C(O)CC(C)(C)OC1=O | 2.56
16 | CCC(=O)Nc1ccc2cc3ccc(N)c(CO)c3nc2c1 | 1.55
17 | CC(=O)N(O)CCCCCNC(=O)CCC(=O)N(O)CCCCCNC(=O)CCC(=O)N(O)CCCCCNC(=O)CCC(=O)O | -0.51
18 | NCC(=O)NC(Cc1ccccc1)C(=O)NC(Cc1ccc(O)cc1)C(=O)O (stereo not drawn) (H-Gly-Phe-Tyr-OH; configuration not given here) | -1.96
19 | CC(N)C(=O)N1CCCC1C(=O)O (stereo not given) | -2.71
20 | ClCC1(C(Cl)Cl)C2CC(Cl)(Cl)C1(C(Cl)Cl)CC2(Cl)Cl (stereo not given) | 5.96
21 | CC(C)(C)[N+]([O-])=Cc1ccncc1 | 0.4
22 | COc1cccc(NC(=O)OCCN2CCCCC2)c1 | 3.32
23 | CCCSc1cccc2nc(N)nc(N)c12 | 2.85
24 | O=C1CCC(=O)N1c1c(Cl)cccc1Cl | 0.57
25 | Cc1nc2c3c(c(C(=O)N(C)C)cn2c1C)CCC(c1ccc(F)cc1)O3 (stereo not given) | 3.5

Row | Structure (SMILES) | logP
26 | CC(C)OP(=O)(OC(C)C)C(Cl)(Cl)P(=O)(OC(C)C)OC(C)C | 2.89
27 | COc1ccc(C2Cc3ccccc3N(CCN(C)C)C(=O)C2OC(C)=O)cc1 (stereo not given) | 3.2
28 | CC(C)Nc1nc(=O)n(C(C)C)c(=O)n1C | 0.53
29 | C=CC(=O)OC1CCCCC1 | 2.8
30 | Cc1cccc(C)c1Cc1ccccn1 | 3.48
31 | COC(=O)C(C)=CC1C(C(=O)OCc2cccc(C(=O)c3ccccc3)c2)C1(C)C (stereo not given) | 5.45
32 | Cc1cc(C)cc(OCC2CN=C(N)O2)c1 (stereo not given) | 2.25
33 | Cc1cccc2c1OP(=O)(OCC1C=CC(n3cc(C)c(=O)[nH]c3=O)O1)OC2 (stereo not given) | 0.71
34 | O=C(NO)C(Cc1ccccc1)C(=O)NCc1ccc(F)cc1 (stereo not given) | 1.8
35 | OCCCCCNc1ncnc2c1ncn2C1OC(CO)C(O)C1O (stereo not given) | -0.24
36 | COC(=O)C1=C(C)NC(C)=C(C(=O)OCC=Cc2ccccc2)C1c1cccc([N+](=O)[O-])c1 (stereo not given) | 5.69
37 | Clc1cccc(Oc2c(Cl)cc(Cl)cc2Cl)c1 | 6.05
38 | O=C1c2ccccc2-c2cc([N+](=O)[O-])ccc21 | 3.06
39 | COc1ccc(CCNCC(O)COc2ccc(-c3nc(C)c(C)[nH]3)cc2)cc1OC (stereo not given) | 3.22
40 | O=C1C=C(N2CCCC2)CN1c1ccc(Cl)cc1 | 2.6
41 | c1ccc(CSSc2ncc[nH]2)cc1 | 3.05
42 | CCOP(=O)(OCC)C(C)(C)[N+]([O-])=Cc1cc[n+]([O-])cc1 | -0.74
43 | CCOc1ccc(CNc2[nH]cnc3ncnc2-3)cc1 | 2.6
44 | COc1cc(Cl)ccc1O | 2.15
45 | C=C1CCCC2(C)CCC(C(C)(C)O)CC12 (stereo not given) | 4.64
46 | CCN(C(C)=O)c1cccc(-c2ccnc3c(C#N)cnn23)c1 | 1.23
47 | CC(C(=O)OC1CCCCC1)S(=O)(=O)c1ccc([N+](=O)[O-])cc1 (stereo not given) | 2.82
48 | CCSSc1ncc[nH]1 | 2.13
49 | Cc1c(C)c2cc3c(C)coc3nc2oc1=O | 2.25
50 | NC(=O)Cc1ccc(O)cc1 | -0.09

Row | Structure (SMILES) | logP
51 | CCCN(CC)CC(=O)Nc1c(C)cccc1C | 2.74
52 | Cc1c(O)c(=O)ccn1CCCOC(=O)c1ccc(N(C)C)cc1 | 1.66
53 | CN(C(=O)CO)c1c(I)c(C(=O)NCC(O)CO)c(I)c(C(=O)NCC(O)CO)c1I (stereo not given) | -2.79
54 | O=C1c2ccccc2OCN1CCO[N+](=O)[O-] | 1.85
55 | CC1(C)N(O)C(c2ccc([N+](=O)[O-])cc2)=[N+]([O-])C1(C)C | 1.68
56 | O=c1nc(N=CN2CCCCC2)ccn1C1CC(O)C(CO)O1 (stereo not given) | -0.51
57 | COCCNc1ncnc2c1ncn2C1OC(CO)C(O)C1O (stereo not given) | -0.49
58 | C=CCC(=O)Nc1ccc(Cl)c(Cl)c1 | 3.63
59 | CC(C)(C)c1ccc(C(CCN2CCCCC2)c2ccccc2)cc1 (stereo not given) | 6.83
60 | CC(C)CC(N)C(=O)NC(CC(C)C)C(=O)NC(CC(C)C)C(=O)NC(C(=O)O)C(C)C (stereo not given) (H-LLLV-OH; configuration not given here) | -0.51
61 | Cc1ccc(CO)c(C=NNC(=O)c2cccc(Cl)c2)c1O | 3.83
62 | Cc1ccc(N2CC(N3CCOCC3)=CC2=O)cc1 | 1.4
63 | CC(C)CC(NC(=O)C(N)Cc1c[nH]c2ccccc12)C(=O)NC(CC(C)C)C(=O)NC(C(=O)O)C(C)C (stereo not given) (H-WLLV-OH; configuration not given here) | 0.23
64 | Cc1ccc([N+](=O)[O-])c(C(=O)O)c1 | 1.63
65 | O=c1ccc2cc3ccsc3cc2o1 | 2.27
66 | C=CCN(N=O)C(=O)N(CCCC(NC(C)=O)C(=O)NCc1ccccc1)Cc1ccccc1 (stereo not given) | 2.16
67 | O=C(Nc1ncnc2nc[nH]c12)c1ccccc1 | 1.12
68 | Cc1sc2ccc3c(C)cc(=O)oc3c2c1C | 3.65
69 | CN(C)C1=NC(=O)N(c2ccc(Cl)cc2)C1 | 1.6
70 | CCC1(c2ccncc2)CCC(=O)NC1=O (stereo not given) | 0.58
71 | CCOc1cc2ncnc(Nc3cccc(Cl)c3)c2cc1OCC | 4.31
72 | C#CCNc1nc(CCC)nc(N2CCOCC2)n1 | 2.3
73 | CCCC(=NOCC)C1=C(O)CC2(CCC(C)C2)OC1=O (stereo not given) | 3.66
74 | Nc1ccno1 | -0.47
75 | COc1c2oc(=O)c(C)cc2cc2c(C)c(C)oc12 | 3.28

Row | Structure (SMILES) | logP
76 | COC(=O)C1=C(C)NC(C)=C(C(=O)OC(C)C)C1c1cccc2c1OCO2 (stereo not given) | 4.15
77 | CC(C)NCC(O)CN1C(=O)COc2ccccc21 (stereo not given) | 1.45
78 | CCOC(=O)C1=C(C)NC(C)=C(C(=O)OC)C1c1ccc(OC)c(OC)c1 (stereo not given) | 3.6
79 | CCCCC(=O)OCOCC(=O)C1(O)Cc2c(O)c3c(c(O)c2C(OC2CC(N(C)C)C(O)C(C)O2)C1)C(=O)c1c(OC)cccc1C3=O (stereo not given) | 2.82
80 | CC(C)CC(NC(=O)C(CC(C)C)NC(=O)C(C)NC(=O)C(C)NC(=O)CN)C(=O)O (stereo not given) (H-GAALL-OH; configuration not given here) | -2.55
81 | CC1(C)CC(=O)C=C(N2CCCCC2)C1 | 2.83
82 | Cc1c(C)c2occc2c2oc(=O)ccc12 | 2.84
83 | CC(O)CN(C)C (stereo not given) | 0.2
84 | Clc1c(Br)cccc1N=C1NCCN1 | 1.82
85 | C[N+](C)([O-])C(c1ccccc1)c1ccccc1 | 0.82
86 | O=C1N=C(N2CCOCC2)CN1c1ccc(Cl)cc1 | 1.5
87 | O=c1cc(CSc2ccccn2)occ1O | 1.14
88 | NC(=O)C(N)Cc1c[nH]c2ccccc12 (stereo not given) | 0.3
89 | CC(C)NC(=NC#N)NS(=O)(=O)c1cnccc1Nc1cccc(I)c1 | 2.51
90 | CCCC(=O)c1ccncc1 | 1.4
91 | Cc1cc2c(s1)Nc1ccccc1N=C2N1CCN(C)CC1 | 3
92 | CCCN(CCC)C1CCc2c(cccc2OC)C1 (stereo not given) | 4.24
93 | COc1ccc(C2Cc3c(cccc3C(F)(F)F)N(CCN(C)C)C(=O)C2C)cc1 (stereo not given) | 5.6
94 | CCN(CC)CCNC(=O)c1c(C)cccc1C | 2.22
95 | O=C(O)CCCON=C(c1ccccc1)c1ncccn1 | 1.64
96 | CC(C)CC(N)C(=O)NC(Cc1ccc(O)cc1)C(=O)O (stereo not given) | -1.94
97 | CC(C)NC(=NC#N)NS(=O)(=O)c1cnccc1Nc1ccc(Cl)cc1 | 2.37
98 | NC(=O)c1c(O)cccc1O | 0.6
99 | COc1ccc(CCNCC(O)COc2ccc(-c3nc(Br)c[nH]3)cc2)cc1OC (stereo not given) | 3.2
100 | CCOC(=O)c1cccc(CN)c1 | 1.44

Row | Structure (SMILES) | logP
101 | CC1(C)CCC(C(F)(F)F)=[N+]1[O-] | 0.2
102 | Cc1nc2c3c(c(C(=O)NC4CCC4)cn2c1C)CCC(c1ccccc1)O3 (stereo not given) | 4.5
103 | Cc1ccccc1Nc1ccncc1S(=O)(=O)NC(=O)NC1CCCCC1 | 4.35
104 | CC(=O)OCC1OC(n2ccc(=O)[nH]c2=O)C(OC(C)=O)C1OC(C)=O (stereo not given) | -0.36
105 | Clc1cccc(N2CCN(CCn3nnc4ccccc43)CC2)c1 | 3.45
106 | CC(=O)NC(CCCCNC(=O)N(CCCl)N=O)C(=O)NCc1ccccc1 (stereo not given) | 1.54
107 | C=C1CC2c3c(O)cc(CCCCC)cc3OC(C)(C)C2CC1O (stereo not given) | 5.24
108 | Clc1cc(Cl)c(-c2c(Cl)ccc(Cl)c2Cl)c(Cl)c1 | 6.75
109 | Cc1nc(C(Cl)(Cl)Cl)nc(C(Cl)(Cl)Cl)n1 | 3.78
110 | CCCOc1ccccc1CNc1[nH]cnc2ncnc1-2 | 3.27
111 | CCCCN(CCO)CCCC | 2.65
112 | CCCNC(=O)c1cccc2nc(N)nc(N)c12 | 0.83
113 | C=C(C)C(=O)OCCCCCCCCCCCC | 6.57
114 | CCCCCOCCCNc1[nH]cnc2ncnc1-2 | 2.74
115 | Cc1cccc2c1C(=O)N(CCO[N+](=O)[O-])CO2 | 2.54
116 | COC(=O)C(C)NP(=O)(OCC1C=CC(n2cc(C)c(=O)[nH]c2=O)O1)Oc1cccc(C(C)=O)c1 (stereo not given) | 0.92
117 | CSCC[C@H](N)C(=O)N1CCC[C@H]1C(=O)O (H-Met-Pro-OH) | -2.52
118 | CC(C)c1cccc(C(C)C)c1NC(=O)CC(=O)C1(c2ccccc2)CCCC1 | 4.55
119 | O=C(NO)NN=Cc1cccc(C(F)(F)F)c1 | 1.64
120 | CSc1cnc(C2=NC(C)(C(C)C)C(=O)N2)c(C(=O)O)c1 (stereo not given) | 0.75
121 | O=C(O)C1CSC(c2cc(O)ccc2O)=N1 (stereo not given) | 0.9
122 | CC(Nc1ccc([N+](=O)[O-])cc1[N+](=O)[O-])C(=O)O (stereo not given) | 2.09
123 | COCCCNc1ncnc2c1ncn2C1OC(CO)C(O)C1O (stereo not given) | -0.17
124 | CCCCC(O)C(CCCCOc1cccc2ccccc12)n1cncn1 (stereo not given) | 4.31
125 | CC1NCCc2c1[nH]c1ccc([N+](=O)[O-])cc21 (stereo not given) | 2.07
